Source: patent US9249159B2, “Composition for treating hepatitis C virus, regulating phosphorylation of replicase” (Industry-Academic Cooperation Foundation, Yonsei University, priority 2011, dated 2016)
“Also recorded” adds a separate entry of the source.

Columns and labels:
Huh7 cell = assay: Cytotoxicity / cell viability (MTS) in Huh7 cell; type: cell-based, human; conditions: 100 μM
Method: (§1) Cytotoxicity of 17-DMAG was measured by using a reagent MTS [3-(4,5-dimethylthiazol-2-yl)-5-(3-carboxylmethoxyphenyl)-2-(4-sulfophenyl)-2H-tetrazolium] (Promega, Madison, Wis., USA) according to the protocols of the manufacturer. The experiment was carried out as follows.
(§2) Huh7 or R-1 cells (2×10^4 cell/well) were seeded in a 96-well plate and treated with 17-DMAG at different concentrations for 72 hours. Then, the culture medium was removed and a MTS substrate dissolved in the culture medium containing 5% FBS was added to each well of the plate. The cells were cultured at 37° C. for 1 hour, and absorbance at 490 nm was read in a 96-well micro plate automatic reading system using GloMax-Multi detection system (Promega).
(§3) An experiment was carried out to check whether or not 17-DMAG inhibited virus RNA replication in an R-1 cell in which autonomous replication of a genotype 1b HCV subgenomic replicon RNA was maintained. Before antiviral activity of 17-DMAG was evaluated, an MTS assay was carried out to evaluate whether or not the drug interfered with cell viability. To be specific, the R-1 cell loaded with a selective HCV subgenomic replicon (upper diagram) and its parental cell line Huh7 were treated with 17-DMAG at a certain concentration for 72 hours, and cell viability was evaluated by the MTS assay.

R-1 cell = assay: Cytotoxicity / cell viability in R-1 cell; type: cell-based, human; conditions: R-1 cell, 100 μM
Method: as §1, §2, §3

[1] = system: genotype 2a HCV (JFH1)-infected Huh7 cells; assay: HCV RNA level in Huh7 cells infected with HCV (JFH1); type: cell-based, hepatitis C virus genotype 2a; conditions: Huh7 cell infected with HCV (JFH-1), 60 and 100 μM, 48 hours
Method: (§4) To do so, after the two cell lines were treated with the compound #17 at higher concentrations (60 and 100 μM) than 20 μM for 48 hours, an HCV RNA genome level was checked by a real-time RT-PCR analysis. A value was a mean±standard deviation (SD) of three independent measurements. HCV RNA titer was quantified by real-time PCR analysis. Three independent experiments were performed in triplicate.
Full-length, infectious HCV RNA of the genotype 2a HCV clone JFH1 was prepared by in vitro transcription using the MEGAscript T7 kit (Ambion, Austin, Tex., USA) and electroporated into Huh7 cells as described previously. Briefly, at 72 h post electroporation, culture medium was collected, cleared by low-speed centrifugation, and passed through a 0.45-μm filter (Millipore, Billerica, Mass., USA) before being used for infection of Huh7 cells. Cells were infected with HCV at a multiplicity of infection of 0.3 by adsorption for 3 h with periodic rocking, then washed three times with phosphate-buffered saline (PBS) and maintained in complete DMEM. […]
Total RNA was extracted from R-1 or HCV (JFH1)-infected cells using TRIzol LS reagent (Invitrogen, Carlsbad, Calif., USA) and purified according to the manufacturer's instructions. HCV RNA levels were quantified by RT-PCR using a primer pair and TaqMan probe targeting a region within the HCV 5′-UTR as described previously. […] Assays were performed using the DyNAmo Probe 2-step qRT-PCR Kit (Finnzymes, Espoo, Finland) and a CHROMO4 continuous fluorescence detector (Bio-Rad, Hercules, Calif., USA), according to the manufacturer's instructions.
In order to analyze whether or not 17-DMAG can inhibit replication in a cell infected with HCV, an experiment was carried out with the genotype 2a HCV infectious clone JFH1, which produces infectious virions in Huh7 or Huh7-derived cell lines. […] After 72 hours, total cellular RNA was extracted and HCV remaining in the infected cell was analyzed by quantitative RT-PCR.

[2] = system: genotype 1b HCV subgenomic replicon (R-1 cell line); assay: HCV replication (HCV RNA by real-time RT-PCR, NS5B protein by Western blot) in R-1 subgenomic replicon cells; type: cell-based, hepatitis C virus genotype 1b; conditions: 48 hours
Source text: In order to check a PRK2 phosphorylation inhibition effect of the novel inhibitors obtained in Example 1, R-1 cell line harboring HCV subgenomic replicons was used.
The R-1 cell line was comprised of cis-acting RNA elements of 5′ and 3′-end untranslated regions (UTR) essential for replication of HCV RNA, a selection marker inserted to select a replicated RNA into a portion from which a structural protein coding site was removed, and a non-structural protein (NS3-NS5B)-coding gene required for replication. In the replicon, the selection marker was expressed by the HCV 5′-UTR and internal ribosome entry site (IRES) as a part of a coding gene of a core protein as a structural protein and capsid protein, and HCV non-structural proteins were expressed by IRES of EMCV. In order to obtain replicon cells, a HCV subgenomic replicon RNA was obtained by means of in vitro transcription by using a T7 RNA polymerase, free ribonucleotide was removed by using a spin column, and introduced into a hepatocellular carcinoma cell line by electroporation. In the presence of G418, a stable cell line, i.e. a cell line showing a resistance to G418 through replication of HCV subgenome, was obtained. Expression of the HCV non-structural proteins in this cell line was analyzed by Western blot to confirm that replication was being carried out, and the R-1 cell line was constructed. It was observed that an HCV RNA copy number was about 10^7 copies/mL by a quantitative real-time PCR analysis using a TaqMan probe. The R-1 cell line was a cell line in which HCV RNA replication was being carried out, and thus it could be used to evaluate an HCV replication inhibition effect of a PRK2 activity inhibitor.
Then, after the R-1 cell line was treated with each of 5 screened PRK2 inhibitors, HA1077 currently and clinically used as a PRK2 activity inhibitor, and Y27632 having a PRK2 activity inhibition effect at a final concentration of 20 μM for 48 hours, levels of HCV NS5B protein and HCV RNA in cell lysates (50 μg) were analyzed by Western blot and real-time RT-PCR.
as §4
5 derivatives (#18 to #22: refer to FIG. 2) were produced based on the inhibitor #17 showing the best effect. After the R-1 cell line was treated with each of these inhibitors or HA1077 and Y27632 at a final concentration of 20 μM for 48 hours, an HCV RNA genome level was checked by a real-time RT-PCR analysis and expressed in % with respect to a control treated with DSMO. Three independent experiments were conducted repeatedly three times. Data were expressed by mean±SD of the three experiments.
Total RNA was extracted from R-1 or HCV (JFH1)-infected cells using TRIzol LS reagent (Invitrogen, Carlsbad, Calif., USA) and purified according to the manufacturer's instructions. HCV RNA levels were quantified by RT-PCR using a primer pair and TaqMan probe targeting a region within the HCV 5′-UTR as described previously. Cellular glyceraldehyde-3-phosphate dehydrogenase was used as an internal control. Assays were performed using the DyNAmo Probe 2-step qRT-PCR Kit (Finnzymes, Espoo, Finland) and a CHROMO4 continuous fluorescence detector (Bio-Rad, Hercules, Calif., USA), according to the manufacturer's instructions.
Therefore, anti-HCV activity of 17-DMAG in the R-1 cell was tested at a level lower than 50 nM. To do so, the R-1 cell was treated with a vehicle (0.25% DMSO) or 17-DMAG for 72 hours and the cell lysates (50 μg) and antibodies specific to the proteins were immunoblotted to measure levels of the proteins. An anti-α-tubulin antibody (lower end panel) was used as an internal loading control. […]

recombinant active PRK2 = recombinant active PRK2 (Homo sapiens, UniProt Q16513); assay: In vitro kinase assay: recombinant PRK2 phosphorylating HCV NS5B; type: biochemical; conditions: gamma-32P ATP and 100 μM ATP, autoradiography
recombinant active PRK2, sequence (Q16513 whole entry): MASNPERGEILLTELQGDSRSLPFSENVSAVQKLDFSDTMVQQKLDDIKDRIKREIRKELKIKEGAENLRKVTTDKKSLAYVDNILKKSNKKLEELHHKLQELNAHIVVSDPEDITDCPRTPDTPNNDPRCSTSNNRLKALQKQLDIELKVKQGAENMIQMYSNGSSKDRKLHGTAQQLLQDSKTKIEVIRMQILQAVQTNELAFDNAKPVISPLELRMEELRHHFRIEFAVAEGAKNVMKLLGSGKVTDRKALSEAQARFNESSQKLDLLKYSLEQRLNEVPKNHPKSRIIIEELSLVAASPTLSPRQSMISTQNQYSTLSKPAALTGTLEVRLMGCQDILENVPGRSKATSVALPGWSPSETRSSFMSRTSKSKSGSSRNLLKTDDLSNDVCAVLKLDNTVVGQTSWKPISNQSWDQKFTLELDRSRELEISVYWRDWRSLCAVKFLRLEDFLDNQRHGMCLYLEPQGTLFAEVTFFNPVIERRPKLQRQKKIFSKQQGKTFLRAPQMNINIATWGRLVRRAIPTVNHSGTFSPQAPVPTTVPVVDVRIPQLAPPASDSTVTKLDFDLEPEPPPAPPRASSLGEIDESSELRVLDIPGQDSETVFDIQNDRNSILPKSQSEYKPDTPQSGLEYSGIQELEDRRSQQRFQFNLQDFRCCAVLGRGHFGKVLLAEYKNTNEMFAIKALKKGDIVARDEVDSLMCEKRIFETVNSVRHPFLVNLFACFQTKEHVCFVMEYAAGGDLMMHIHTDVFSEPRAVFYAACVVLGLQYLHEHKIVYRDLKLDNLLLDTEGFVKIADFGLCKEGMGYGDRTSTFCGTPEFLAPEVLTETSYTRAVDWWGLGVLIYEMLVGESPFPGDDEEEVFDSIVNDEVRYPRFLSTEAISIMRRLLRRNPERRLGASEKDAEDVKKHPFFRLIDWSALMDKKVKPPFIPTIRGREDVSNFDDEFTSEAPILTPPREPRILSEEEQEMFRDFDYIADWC
Method: Then, in order to test an HCV NS5B protein phosphorylation inhibition effect of the screened novel PRK2 inhibitor, in vitro kinase assay was carried out.
Using a recombinant active PRK2 and purified HCV NS5B protein as substrates, the screened inhibitors #11 and #17 were treated in the presence of gamma-^32P ATP and 100 μM ATP. The reaction mixture was separated by SDS-PAGE (8% gel), and a result thereof was checked by autoradiography.
Finally, PRK2 and HCV NS5B phosphorylation inhibition effects of the compounds #18, #19, #20, #21 and #22 as the derivatives of the compound #17 were analyzed through in vitro kinase assay.
A 1 μM recombinant PRK2 and 10 μM HCV NS5B were phosphorylated for 30 minutes in the presence of 10 μCi γ-^32P ATP and 100 μM ATP. The reaction mixture was separated by SDS-PAGE (8% gel), and a result thereof was checked by autoradiography.

O=C1NCCCC1C(=O)Nc1ccncc1 (stereo not drawn) [compound #17, 2-oxo-N-4-pyridinyl-3-piperidinecarboxamide]
activity of the cells (cytotoxicity) (Huh7 cell): not greatly inhibited
activity of the cells (cytotoxicity) (R-1 cell): not greatly inhibited
HCV RNA titers [1]: decreased in a dosage-dependent manner; also recorded: slightly higher in a cell infected with JFH-1 than in an HCV subgenomic replicon cell
decrease of HCV RNA titers with respect to DMSO control ([2]; R-1 cell line, 20 μM): about 50%
HCV RNA titers ([2]; R-1 cell, 60 and 100 μM): decreased in a dosage-dependent manner
inhibition of in vitro phosphorylation of HCV NS5B protein (recombinant active PRK2): inhibit phosphorylation of HCV NS5B protein
